Drawing on patent US12012374B2, “Agonists of ROR GAMMAt” (BRISTOL-MYERS SQUIBB COMPANY, priority 2019, dated 2024), this text covers EC50 for 29 compounds.

The experiment concerns the target T1, human RORgT (Homo sapiens, UniProt P51449).
T1 construct: expressed in transfected cells; host or cells: engineered Jurkat cells (Jurkat pEx/Gal/hRORγ CLBD/HYG pG5luc/blast)
T1 sequence (P51449 267-516): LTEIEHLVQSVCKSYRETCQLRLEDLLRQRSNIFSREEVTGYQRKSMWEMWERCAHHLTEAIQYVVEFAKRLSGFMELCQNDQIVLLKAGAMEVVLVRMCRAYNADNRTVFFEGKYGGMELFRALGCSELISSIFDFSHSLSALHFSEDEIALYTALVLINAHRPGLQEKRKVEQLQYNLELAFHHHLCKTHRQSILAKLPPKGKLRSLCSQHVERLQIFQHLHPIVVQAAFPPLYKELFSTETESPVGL
Kind of experiment: RORgT Gal4 Luciferase Reporter Gene Assay. The class given is cell-based. Conditions: engineered Jurkat cells overexpressing RORgT (LBD or full length) fused with Gal4 Luc reporter; 18 hours incubation.
As to `O=C(C1CCS(=O)(=O)CC1)N1CC[C@](c2ccc(OCc3c(Cl)cccc3Cl)cc2)(S(=O)(=O)c2ccc(F)cc2)C1` [Example 36, 4-[(3R)-3-{4-[(2,6-dichlorophenyl)methoxy]phenyl}-3-(4-fluorobenzenesulfonyl)pyrrolidine-1-carbonyl]-1λ^6-thiane-1,1-dione], a half-maximal effect (EC50) was put at 0.017 µM. `O=S(=O)(c1ccccc1)C1(c2ccc(OCc3cccc(F)c3)cc2)CCCC1` [Example 11, 1-[1-(benzenesulfonyl)cyclopentyl]-4-[(3-fluorophenyl)methoxy]benzene]: the EC50 (as a rule, the midpoint of the concentration-response curve) is 0.397 µM. Against the preceding compound, the EC50 is about 23-fold higher. Then `O=C(C1CCS(=O)(=O)CC1)N1CCC(c2ccc(OCc3ccccc3Cl)cc2)(S(=O)(=O)c2ccccc2)C1` (centres unmarked) [Example 28, 4-[3-(benzenesulfonyl)-3-{4-[(2-chlorophenyl)methoxy]phenyl}pyrrolidine-1-carbonyl]-1λ^6-thiane-1,1-dione], with 0.187 µM; and `O=C(Cc1ccncc1)N1CCC(c2ccc(OCc3ccccc3)cc2)(S(=O)(=O)c2cccc(C(F)(F)F)c2)C1` (centres unmarked) [Example 22, 1-{3-[4-(benzyloxy)phenyl]-3-[3-(trifluoromethyl)benzenesulfonyl]pyrrolidin-1-yl}-2-(pyridin-4-yl)ethan-1-one], with 0.514 µM. In the case of `NC(=O)N1CCC(C(=O)N2CCC(c3ccc(OCc4c(Cl)cccc4Cl)cc3)(S(=O)(=O)c3ccccc3)C2)CC1` (centres unmarked) [Example 25, 4-[3-(benzenesulfonyl)-3-{4-[(2,6-dichlorophenyl)methoxy]phenyl}pyrrolidine-1-carbonyl]piperidine-1-carboxamide] it was 0.267 µM. In turn, `O=C(C1CCS(=O)(=O)CC1)N1CCC(c2ccc(OCc3c(F)cccc3C(F)(F)F)cc2)(S(=O)(=O)c2ccccc2)C1` (centres unmarked) [Example 30, 4-[3-(benzenesulfonyl)-3-(4-{[2-fluoro-6-(trifluoromethyl)phenyl]methoxy}phenyl)pyrrolidine-1-carbonyl]-1λ^6-thiane-1,1-dione] came in with an EC50 of 0.028 µM. In the case of `O=S(=O)(c1ccccc1)C1(c2ccc(OCc3ccc(F)cc3)cc2)CCCC1` [Example 12, 1-[1-(benzenesulfonyl)cyclopentyl]-4-[(4-fluorophenyl)methoxy]benzene] it was 0.087 µM; in that of `O=C(O)[C@H]1CC[C@H](C(=O)N2CC[C@](c3ccc(OCc4c(Cl)cccc4C(F)(F)F)cc3)(S(=O)(=O)c3ccc(F)cc3)C2)CC1` [Example 47, (1r,4r)-4-[(3R)-3-(4-{[2-chloro-6-(trifluoromethyl)phenyl]methoxy}phenyl)-3-(4-fluorobenzenesulfonyl)pyrrolidine-1-carbonyl]cyclohexane-1-carboxylic acid], 0.293 µM.

`NC(=O)[C@H]1CC[C@H](C(=O)N2CC[C@](c3ccc(OCc4c(Cl)cccc4C(F)(F)F)cc3)(S(=O)(=O)c3ccc(F)cc3)C2)CC1` [Example 45, (1r,4r)-4-[(3R)-3-(4-{[2-chloro-6-(trifluoromethyl)phenyl]methoxy}phenyl)-3-(4-fluorobenzenesulfonyl)pyrrolidine-1-carbonyl]cyclohexane-1-carboxamide] returned a half-maximal effective concentration (EC50) of 0.351 µM. For the compound `O=S(=O)(c1ccccc1)C1(c2ccc(OCC3CCCCC3)cc2)CCCC1` [Example 10, 1-[1-(benzenesulfonyl)cyclopentyl]-4-(cyclohexylmethoxy)benzene], the concentration giving a half-maximal response (EC50) worked out at 0.328 µM. This EC50 and that of the compound before are within 1.5-fold of each other. In the case of `O=S(=O)(c1ccc(Cl)cc1)C1(c2ccc(OCc3ccccc3)cc2)CCCC1` [Example 9, 1-(benzyloxy)-4-[1-(4-chlorobenzenesulfonyl)cyclopentyl]benzene] it was 0.212 µM; in that of `O=C(O)[C@H]1CC[C@H](C(=O)N2CCC(c3ccc(OCc4c(Cl)cccc4Cl)cc3)(S(=O)(=O)c3ccccc3)C2)CC1` (some centres unmarked) [Example 24, (1r,4r)-4-[3-(benzenesulfonyl)-3-{4-[(2,6-dichlorophenyl)methoxy]phenyl}pyrrolidine-1-carbonyl]cyclohexane-1-carboxylic acid], 0.552 µM. Compound `O=C(C1CCS(=O)(=O)CC1)N1CCC(c2ccc(OCc3ccccc3C(F)(F)F)cc2)(S(=O)(=O)c2ccccc2)C1` (centres unmarked) [Example 32, 4-[3-(benzenesulfonyl)-3-(4-{[2-(trifluoromethyl)phenyl]methoxy}phenyl)pyrrolidine-1-carbonyl]-1λ^6-thiane-1,1-dione] showed an EC50 of 0.084 µM. Against the preceding compound, the EC50 is about 6.6-fold lower.

For `O=C(C1CCS(=O)(=O)CC1)N1CCC(c2ccc(OCc3ccccc3)cc2)(S(=O)(=O)c2cccc(C(F)(F)F)c2)C1` (centres unmarked) [Example 21, 4-{3-[4-(benzyloxy)phenyl]-3-[3-(trifluoromethyl)benzenesulfonyl]pyrrolidine-1-carbonyl}-1λ^6-thiane-1,1-dione], the EC50 stood at 0.462 µM. This EC50 is about 5.5-fold higher than that of the compound before. Consider `O=S(=O)(c1cccc(C(F)(F)F)c1)C1(c2ccc(OCc3ccccc3)cc2)CCCC1` [Example 8, 1-(benzyloxy)-4-{1-[3-(trifluoromethyl)benzenesulfonyl]cyclopentyl}benzene], for which the EC50 came out at 0.382 µM. The EC50 values of the last two compounds are within 1.5-fold of each other. Then `O=C(N1CC[C@](c2ccc(OCc3c(Cl)cccc3C(F)(F)F)cc2)(S(=O)(=O)c2ccc(F)cc2)C1)C1(O)CCS(=O)(=O)CC1` [Example 46, 4-[(3R)-3-(4-{[2-chloro-6-(trifluoromethyl)phenyl]methoxy}phenyl)-3-(4-fluorobenzenesulfonyl)pyrrolidine-1-carbonyl]-4-hydroxy-1λ^6-thiane-1,1-dione], with 0.042 µM; and `O=C(C1CCS(=O)(=O)CC1)N1CCC(c2ccc(OCc3c(F)ccc(F)c3Cl)cc2)(S(=O)(=O)c2ccccc2)C1` (centres unmarked) [Example 27, 4-[3-(benzenesulfonyl)-3-{4-[(2-chloro-3,6-difluorophenyl)methoxy]phenyl}pyrrolidine-1-carbonyl]-1λ^6-thiane-1,1-dione], with 0.109 µM. In the case of `O=C(C1CCS(=O)(=O)CC1)N1CCC(c2ccc(OCc3c(F)cccc3Cl)cc2)(S(=O)(=O)c2ccccc2)C1` (centres unmarked) [Example 29, 4-[3-(benzenesulfonyl)-3-{4-[(2-chloro-6-fluorophenyl)methoxy]phenyl}pyrrolidine-1-carbonyl]-1λ^6-thiane-1,1-dione] it was 0.039 µM; in that of `O=C(O)[C@H]1CC[C@H](C(=O)N2CC[C@](c3ccc(OCc4c(Cl)cccc4Cl)cc3)(S(=O)(=O)c3ccccc3)C2)CC1` [Example 34, (1r,4r)-4-[(3R)-3-(benzenesulfonyl)-3-{4-[(2,6-dichlorophenyl)methoxy]phenyl}pyrrolidine-1-carbonyl]cyclohexane-1-carboxylic acid], 0.275 µM. In turn, `O=C(N1CC[C@](c2ccc(OCc3c(F)cccc3C(F)(F)F)cc2)(S(=O)(=O)c2ccc(F)cc2)C1)C1(O)CCS(=O)(=O)CC1` [Example 43, 4-[(3R)-3-(4-{[2-fluoro-6-(trifluoromethyl)phenyl]methoxy}phenyl)-3-(4-fluorobenzenesulfonyl)pyrrolidine-1-carbonyl]-4-hydroxy-1λ^6-thiane-1,1-dione] displayed an EC50 of 0.014 µM. The compound `O=C(C1CCS(=O)(=O)CC1)N1CCC(c2ccc(OCc3c(Cl)cccc3Cl)cc2)(S(=O)(=O)c2ccccc2)C1` (centres unmarked) [Example 23, 4-[3-(benzenesulfonyl)-3-{4-[(2,6-dichlorophenyl)methoxy]phenyl}pyrrolidine-1-carbonyl]-1λ^6-thiane-1,1-dione] came in with a 50% effective concentration (EC50) of 0.046 µM. In turn, `O=C(C1CCS(=O)(=O)CC1)N1CC[C@](c2ccc(OCc3c(Cl)cccc3Cl)cc2)(S(=O)(=O)c2ccccc2)C1` [Example 33, 4-[(3R)-3-(benzenesulfonyl)-3-{4-[(2,6-dichlorophenyl)methoxy]phenyl}pyrrolidine-1-carbonyl]-1λ^6-thiane-1,1-dione] gave an EC50 of 0.032 µM.

The compound `O=C(O)[C@H]1CC[C@H](C(=O)N2CC[C@](c3ccc(OCc4c(Cl)cccc4Cl)cc3)(S(=O)(=O)c3ccc(F)cc3)C2)CC1` [Example 35, (1r,4r)-4-[(3R)-3-{4-[(2,6-dichlorophenyl)methoxy]phenyl}-3-(4-fluorobenzenesulfonyl)pyrrolidine-1-carbonyl]cyclohexane-1-carboxylic acid] returned an EC50 of 0.058 µM.

Consider `O=C(Cn1ccnn1)N1CCC(c2ccc(OCc3ccccc3)cc2)(S(=O)(=O)c2ccc(F)cc2)C1` (centres unmarked) [Example 17, 1-{3-[4-(benzyloxy)phenyl]-3-(4-fluorobenzenesulfonyl)pyrrolidin-1-yl}-2-(1H-1,2,3-triazol-1-yl)ethan-1-one], for which the EC50 was 0.526 µM. Take `C[C@H](Oc1ccc([C@]2(S(=O)(=O)c3ccc(F)cc3)CCN(C(=O)C3CCS(=O)(=O)CC3)C2)cc1)c1ccccc1` [Example 37, 4-[(3R)-3-(4-fluorobenzenesulfonyl)-3-{4-[(1S)-1-phenylethoxy]phenyl}pyrrolidine-1-carbonyl]-1λ^6-thiane-1,1-dione]: the response was half-maximal at 0.077 µM (EC50). Then `NC(=O)[C@H]1CC[C@H](C(=O)N2CC[C@](c3ccc(OCc4c(F)cccc4C(F)(F)F)cc3)(S(=O)(=O)c3ccc(F)cc3)C2)CC1` [Example 44, (1r,4r)-4-[(3R)-3-(4-{[2-fluoro-6-(trifluoromethyl)phenyl]methoxy}phenyl)-3-(4-fluorobenzenesulfonyl)pyrrolidine-1-carbonyl]cyclohexane-1-carboxamide], with 0.195 µM; and `O=S(=O)(c1ccc(F)cc1)C1(c2ccc(OCCc3ccccc3)cc2)CCCC1` [Example 4, 1-[1-(4-fluorobenzenesulfonyl)cyclopentyl]-4-(2-phenylethoxy)benzene], with 0.139 µM. Consider `O=S(=O)(c1ccccc1)C1(c2ccc(OCCC3CC3)cc2)CCCC1` [Example 14, 1-[1-(benzenesulfonyl)cyclopentyl]-4-(2-cyclopropylethoxy)benzene], for which a half-maximal response (EC50) required 0.423 µM. For `O=C(C1CCS(=O)(=O)CC1)N1CCC(c2ccc(OCc3ccc(F)cc3Cl)cc2)(S(=O)(=O)c2ccccc2)C1` (centres unmarked) [Example 31, 4-[3-(benzenesulfonyl)-3-{4-[(2-chloro-4-fluorophenyl)methoxy]phenyl}pyrrolidine-1-carbonyl]-1λ^6-thiane-1,1-dione], it took 0.343 µM to reach a half-maximal effect (EC50).
